Converted amounts (≈) assume the structure as drawn.
What was measured:
Escherichia coli SEC086 [1] = test system: Escherichia coli SEC086
Description: (§1) MIC (Minimum Inhibitory Concentration) was determined according to CLSI guidelines, as discussed elsewhere. Briefly, the strains were streaked on LB-Agar plates with Ampicillin (100 µg/mL) from glycerol stocks maintained at −80 °C and allowed to grow overnight at 37 °C. A single colony of each strain was picked from the fresh plates and grown in MHB No.2 Control Cations Hi-Media (MHB) with Ampicillin (100 µg/mL). Phe-Arg β-Naphthylamide (PAβN; Sigma-Aldrich, Catalog no.# P4157) was used at a final concentration of 20 µg/mL, wherever mentioned. The AcrAB and OqxAB expression are under a […] promoter, and AcrB and OqxB were induced with 100 μM of IPTG (Amresco, Catalog no.# 0487-10 G). Antibiotics and their two-fold dilution series were prepared in DMSO. Three microliters compound from each of the dilutions and 150 μL (3–7 × 10^5 CFU/mL) of bacterial culture were added to a flat bottom 96 well microtiter plates to obtain final antibiotic concentrations ranging from 0.03 µg/mL to 160 µg/mL. The plates were packed in gas permeable polythene bags and incubated at 37 °C for 16–18 h. MIC was determined as the concentration at which no bacterial growth was observed as ascertained by absorbance (A600nm) with a spectrophotometer. In the case of the wild-type strain and clinical isolates, 90% growth inhibition was used for MIC determination. […] All experiments were performed in triplicates and the data reported in this work is representative of the same. OqxB, the RND efflux pump component, is associated with increased resistance in clinical isolates of E. coli and K. pneumoniae. To understand the efflux liability for fluoroquinolones in E. coli in the clinic, 84 recent clinical isolates were evaluated by MIC experiments (at St. John’s Medical Hospital, Bengaluru, India). […] To delineate the cause of the resistance, the Quinolone-resistance determining regions (QRDR) of gyrA and parC were sequenced. […] Therefore, complementation experiments in “sensitive strains” were undertaken to further probe the role of OqxB in efflux towards fluoroquinolone resistance.

Escherichia coli BW25113 = test system: Escherichia coli BW25113
Description: as §1

Escherichia coli SEC037 [2] = test system: Escherichia coli SEC037
Description: as §1

Escherichia coli SEC030 [3] = test system: Escherichia coli SEC030
Description: as §1

Escherichia coli SEC032 [4] = test system: T1, Escherichia coli SEC032; parameters: CLSI broth microdilution MIC, 96-well, absorbance at 600 nm
T1 construct: SEC032
Description: as §1

Escherichia coli SEC063 = test system: T2, Escherichia coli SEC063; parameters: CLSI broth microdilution MIC, 96-well, absorbance at 600 nm
T2 construct: SEC063
Description: as §1

Escherichia coli SEC010 = test system: T3, Escherichia coli SEC010; parameters: CLSI broth microdilution MIC, 96-well, absorbance at 600 nm
T3 construct: SEC010
Description: as §1

Escherichia coli SEC056 = test system: T4, Escherichia coli SEC056; parameters: CLSI broth microdilution MIC, 96-well, absorbance at 600 nm
T4 construct: SEC056
Description: as §1

Escherichia coli SEC045 [5] = test system: T5, Escherichia coli SEC045; parameters: CLSI broth microdilution MIC, 96-well, absorbance at 600 nm
T5 construct: SEC045
Description: as §1

Escherichia coli SEC052 = test system: T6, Escherichia coli SEC052; parameters: CLSI broth microdilution MIC, 96-well, absorbance at 600 nm
T6 construct: SEC052
Description: as §1

Escherichia coli SEC032 [6] = test system: T1, Escherichia coli SEC032; experiment: microbe, parasite or virus in culture; parameters: species or system Escherichia coli clinical isolates; CLSI broth microdilution MIC on E. coli clinical isolates, A600 read-out, 90% growth inhibition; settings: SEC032, read-out: MIC VALUES / Ampicillin
Description: as §1

Escherichia coli SEC050 = test system: T7, Escherichia coli SEC050; experiment: microbe, parasite or virus in culture; parameters: species or system Escherichia coli clinical isolates; CLSI broth microdilution MIC on E. coli clinical isolates, A600 read-out, 90% growth inhibition; settings: SEC050, read-out: MIC VALUES / Ampicillin
T7 construct: SEC050
Description: as §1

Escherichia coli SEC046 = test system: T8, Escherichia coli SEC046; experiment: microbe, parasite or virus in culture; parameters: species or system Escherichia coli clinical isolates; CLSI broth microdilution MIC on E. coli clinical isolates, A600 read-out, 90% growth inhibition; settings: SEC046, read-out: MIC VALUES / Ampicillin
T8 construct: SEC046
Description: as §1

Escherichia coli SEC030 [7] = test system: T9, Escherichia coli SEC030; experiment: microbe, parasite or virus in culture; parameters: species or system Escherichia coli clinical isolates; CLSI broth microdilution MIC on E. coli clinical isolates, A600 read-out, 90% growth inhibition; settings: SEC030, read-out: MIC VALUES / Ampicillin
T9 construct: SEC030
Description: as §1

Escherichia coli SEC037 [8] = test system: T10, Escherichia coli SEC037; experiment: microbe, parasite or virus in culture; parameters: species or system Escherichia coli clinical isolates; CLSI broth microdilution MIC on E. coli clinical isolates, A600 read-out, 90% growth inhibition; settings: SEC037, read-out: MIC VALUES / Ampicillin
T10 construct: SEC037
Description: as §1

Escherichia coli SEC086 [9] = test system: T11, Escherichia coli SEC086; experiment: microbe, parasite or virus in culture; parameters: species or system Escherichia coli clinical isolates; CLSI broth microdilution MIC on E. coli clinical isolates, A600 read-out, 90% growth inhibition; settings: SEC086, read-out: MIC VALUES / Ampicillin
T11 construct: SEC086
Description: as §1

Escherichia coli SEC045 [10] = test system: T5, Escherichia coli SEC045; experiment: microbe, parasite or virus in culture; parameters: species or system Escherichia coli clinical isolates; CLSI broth microdilution MIC on E. coli clinical isolates, A600 read-out, 90% growth inhibition; settings: SEC045, read-out: MIC VALUES / Ampicillin
Description: as §1

**Q.** For CC(=O)NC[C@H]1CN(c2ccc(N3CCOCC3)c(F)c2)C(=O)O1 [Linezolid], which “Linezolid MIC without PAβN” value (Escherichia coli SEC086 [1]) is on record?
**A.** The value was 200 µg/mL.

**Q.** What about the “Linezolid MIC without PAβN” value (Escherichia coli BW25113) of the same compound?
**A.** Its value is 200 µg/mL.

**Q.** And the “Linezolid MIC without PAβN” value (Escherichia coli SEC037 [2])?
**A.** Its value is 200 µg/mL.

**Q.** What about the “Linezolid MIC without PAβN” value (Escherichia coli SEC030 [3]) of the same compound?
**A.** The value was 400 µg/mL.

**Q.** What about the “Linezolid MIC without PAβN” value (Escherichia coli SEC032 [4]) of the same compound?
**A.** The value was 400 µg/mL.

**Q.** What about the “Linezolid MIC without PAβN” value (Escherichia coli SEC063) of the same compound?
**A.** The value was 400 µg/mL.

**Q.** What about the “Linezolid MIC without PAβN” value (Escherichia coli SEC010) of the same compound?
**A.** The value was 400 µg/mL.

**Q.** What about the “Linezolid MIC without PAβN” value (Escherichia coli SEC056) of the same compound?
**A.** The value was 200 µg/mL.

**Q.** What about the “Linezolid MIC without PAβN” value (Escherichia coli SEC045 [5]) of the same compound?
**A.** Its value is 200 µg/mL.

**Q.** What about the “Linezolid MIC without PAβN” value (Escherichia coli SEC052) of the same compound?
**A.** Its value is 200 µg/mL.

**Q.** How did the MIC (Escherichia coli SEC032 [6]) turn out when CC1(C)S[C@@H]2[C@H](NC(=O)[C@H](N)c3ccccc3)C(=O)N2[C@H]1C(=O)O [ampicillin] was run?
**A.** Its MIC is 8 µg/mL (≈ 22.9 µM).

**Q.** What about the MIC (Escherichia coli SEC050) of the same compound?
**A.** Its MIC is 8 µg/mL (≈ 22.9 µM).

**Q.** And the MIC (Escherichia coli SEC046)?
**A.** The MIC was 8 µg/mL (≈ 22.9 µM).

**Q.** What about the MIC (Escherichia coli SEC030 [7]) of the same compound?
**A.** Its MIC is 2 µg/mL (≈ 5.72 µM).

**Q.** What about the MIC (Escherichia coli SEC037 [8]) of the same compound?
**A.** Its MIC is 2 µg/mL (≈ 5.72 µM).

**Q.** What about the MIC (Escherichia coli SEC086 [9]) of the same compound?
**A.** Its MIC is 4 µg/mL (≈ 11.4 µM).

**Q.** What about the MIC (Escherichia coli SEC045 [10]) of the same compound?
**A.** The MIC was 4 µg/mL (≈ 11.4 µM).
